# Measured values: ChEMBL document CHEMBL1201862, “PubChem BioAssay data set” (2004)
#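 Exposure lasted 48 hours, with cells grown in 96-well plates and compounds tested at five concentrations. Here, GI50 denotes the concentration required for 50% inhibition of growth.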 Calls of active or inactive are those of the source. No stated cut-off is given here; in the data, active = GI50 up to about 1.1 µM and inactive = higher.
# How the values were obtained:
# Test in all cases: inhibition of tumour cell growth, NCI panel, 48 h
# [1] = tested on: A498
# [2] = tested on: A549
# [3] = tested on: CAKI-1
# [4] = tested on: CCRF-CEM
# [5] = tested on: COLO 205
# [6] = tested on: DLD-1
# [7] = tested on: DMS-114
# [8] = tested on: DMS-273
# [9] = tested on: EKVX
# [10] = tested on: HCC 2998
# [11] = tested on: HCT-116
# [12] = tested on: HCT-15
# [13] = tested on: HL-60
# [14] = tested on: HOP-18
# [15] = tested on: HOP-62
# [16] = tested on: HOP-92
# [17] = tested on: HT-29
# [18] = tested on: IGROV-1
# [19] = tested on: K562
# [20] = tested on: KM-20L2
# [21] = tested on: KM12
# [22] = tested on: LOX IMVI
# [23] = tested on: M19-MEL
# [24] = tested on: MCF7
# [25] = tested on: MOLT-4
# [26] = tested on: Malme-3M
# [27] = tested on: NCI-H226
# [28] = tested on: NCI-H23
# [29] = tested on: NCI-H460
# [30] = tested on: NCI-H522
# [31] = tested on: NCI/ADR-RES
# [32] = tested on: OVCAR-3
# [33] = tested on: OVCAR-4
# [34] = tested on: OVCAR-5
# [35] = tested on: OVCAR-8
# [36] = tested on: RPMI-8226
# [37] = tested on: RXF 393
# [38] = tested on: SF-268
# [39] = tested on: SF-295
# [40] = tested on: SF-539
# [41] = tested on: SK-MEL-28
# [42] = tested on: SK-MEL-2
# [43] = tested on: SK-MEL-5
# [44] = tested on: SK-OV-3
# [45] = tested on: SN12C
# [46] = tested on: SNB-19
# [47] = tested on: SNB-75
# [48] = tested on: SW-620
# [49] = tested on: U-251
# [50] = tested on: UACC-257
# [51] = tested on: UACC-62
# [52] = tested on: UO-31
# [53] = tested on: XF498
smiles,measurement,setting,value
CC(C)=CC1C(C(=O)O)C1(C)C (stereo not drawn) [CHRYSANTHEMIC ACID],GI50,[1],24 µM (inactive)
same,GI50,[2],> 750 µM (inactive)
same,GI50,[3],643 µM (inactive)
same,GI50,[4],> 750 µM (inactive)
same,GI50,[5],> 750 µM (inactive)
same,GI50,[6],> 750 µM (inactive)
same,GI50,[7],> 750 µM (inactive)
same,GI50,[8],> 750 µM (inactive)
same,GI50,[9],> 750 µM (inactive)
same,GI50,[10],> 750 µM (inactive)
same,GI50,[11],> 750 µM (inactive)
same,GI50,[12],> 750 µM
same,GI50,[13],> 750 µM (inactive)
same,GI50,[14],197 µM (inactive)
same,GI50,[15],> 750 µM (inactive)
same,GI50,[16],520 µM (inactive)
same,GI50,[17],> 750 µM (inactive)
same,GI50,[18],> 750 µM (inactive)
same,GI50,[19],> 750 µM (inactive)
same,GI50,[20],> 750 µM (inactive)
same,GI50,[21],> 750 µM (inactive)
same,GI50,[22],> 750 µM (inactive)
same,GI50,[23],> 750 µM (inactive)
same,GI50,[24],> 750 µM (inactive)
same,GI50,[25],> 750 µM (inactive)
same,GI50,[26],746 µM (inactive)
same,GI50,[27],75 µM (inactive)
same,GI50,[28],> 750 µM (inactive)
same,GI50,[29],> 750 µM (inactive)
same,GI50,[30],> 750 µM (inactive)
same,GI50,[31],> 750 µM (inactive)
same,GI50,[32],> 750 µM (inactive)
same,GI50,[33],> 750 µM (inactive)
same,GI50,[34],> 750 µM (inactive)
same,GI50,[35],> 750 µM (inactive)
same,GI50,[36],> 750 µM (inactive)
same,GI50,[37],> 750 µM (inactive)
same,GI50,[38],> 750 µM (inactive)
same,GI50,[39],> 750 µM (inactive)
same,GI50,[40],> 750 µM (inactive)
same,GI50,[41],> 750 µM (inactive)
same,GI50,[42],> 750 µM (inactive)
same,GI50,[43],> 750 µM (inactive)
same,GI50,[44],> 750 µM (inactive)
same,GI50,[45],> 724 µM (inactive)
same,GI50,[46],> 750 µM (inactive)
same,GI50,[47],> 750 µM (inactive)
same,GI50,[48],> 750 µM (inactive)
same,GI50,[49],> 750 µM (inactive)
same,GI50,[50],> 750 µM (inactive)
same,GI50,[51],> 750 µM (inactive)
same,GI50,[52],> 750 µM (inactive)
same,GI50,[53],50.6 µM (inactive)
